The record followed here is patent publication US9458141B2, “Low molecular weight thyroid stimulating hormone receptor (TSHR) agonists” (The United States of America, as represented by the …, priority 2008, dated 2016).

In general, AC50 refers to the concentration giving half of the maximal activity seen.

The target in this assay is T1, human TSHR (Homo sapiens, UniProt P16473).
T1 construct: expressed in transfected cells
In words: Homogeneous Time Resolved Fluorescence (HTRF) cAMP assay, TSHR cell line. Particulars: for AC50: HTRF cAMP, TSHR cell line, 30 minute incubation; for Maximum Activity compared to TSH: 100% activity = response of 30 mU/ml TSH, 0% = DMSO control, in %; for Emax: read-out: Maximum Activity compared to TSH, 100% activity = response of 30 mU/ml TSH, 0% = DMSO control; call rule not given here. Type of assay: cell-based. In general terms: TR-FRET usually uses a lanthanide donor and a delayed reading to cut background.

Each structure is given as a SMILES string. Read-outs that look alike come from different tables or passages of the source.

T1 sequence (P16473 21-764): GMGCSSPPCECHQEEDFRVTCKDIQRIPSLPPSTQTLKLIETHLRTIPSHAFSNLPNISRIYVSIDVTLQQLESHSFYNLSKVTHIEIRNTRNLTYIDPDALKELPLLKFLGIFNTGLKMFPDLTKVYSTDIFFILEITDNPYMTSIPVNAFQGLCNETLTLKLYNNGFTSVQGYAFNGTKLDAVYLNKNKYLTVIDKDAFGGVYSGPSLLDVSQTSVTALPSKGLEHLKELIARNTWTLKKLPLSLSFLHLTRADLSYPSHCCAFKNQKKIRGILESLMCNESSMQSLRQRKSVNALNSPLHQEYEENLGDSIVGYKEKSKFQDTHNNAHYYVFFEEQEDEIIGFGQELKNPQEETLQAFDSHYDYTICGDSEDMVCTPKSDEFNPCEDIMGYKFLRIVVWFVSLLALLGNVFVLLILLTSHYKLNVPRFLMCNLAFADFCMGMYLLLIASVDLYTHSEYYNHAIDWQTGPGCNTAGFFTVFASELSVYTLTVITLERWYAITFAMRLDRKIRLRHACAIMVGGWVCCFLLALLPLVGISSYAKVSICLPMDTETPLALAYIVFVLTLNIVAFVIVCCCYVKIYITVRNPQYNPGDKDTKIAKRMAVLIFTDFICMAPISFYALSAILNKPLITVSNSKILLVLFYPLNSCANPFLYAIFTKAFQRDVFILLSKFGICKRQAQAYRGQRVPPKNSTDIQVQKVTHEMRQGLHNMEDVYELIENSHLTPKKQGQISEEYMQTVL

Regarding `COc1ccc(C2Nc3cccc(OC)c3C(=O)N2Cc2ccccc2)cc1COc1ccc(NC(C)=O)cc1` (stereo not shown) [Structure 235], the AC50 entry is “inactive”.

In the case of `COc1ccc(CN(Cc2ccccc2)C(=O)COC(C)=O)cc1COc1ccc(NC(C)=O)cc1` [Structure 236], the “Maximum Activity compared to TSH” value worked out at 32.00. The AC50 (read-out: AC50) came out at 35.5 µM.

With `COc1ccc(C2Nc3ccccc3C(=O)N2Cc2ccco2)cc1COc1ccc(N)cc1` (stereo not shown) [Structure 237], the AC50 entry is “inactive”.

In the case of `COc1ccc(C2Nc3ccccc3C(=O)N2Cc2ccccc2)cc1COc1ccc(Cl)cc1` (stereo not shown) [Structure 238], the AC50 result is “inactive”.

With `COc1cccc(-c2nc(SC)nc3sc(C(=O)NC(C)(C)C)c(N)c23)c1` [Structure 239], the “Maximum Activity compared to TSH” value was determined as 30.00. Also, where the note is “read-out: AC50”, the AC50 was 17.8 µM.

For `COc1cccc(-c2nc(SC)nc3sc(C(=O)NC(C)(C)C)c(N)c23)c1` [Structure 240], the AC50 result is “inactive”.

Take `COc1ccc(C2Nc3ccccc3C(=O)N2Cc2ccc(-c3ccccc3)cc2)cc1COc1ccc(NC(C)=O)cc1` (stereo not shown) [Structure 242]: the AC50 entry is “inactive”.

`COc1ccc(C2Nc3ccccc3C(=O)N2Cc2ccccc2)cc1Oc1ccc(NC(C)=O)cc1` (stereo not shown) [Structure 243]: the AC50 result is “inactive”.

With `O=C1CC(c2ccco2)CC2=C1C(c1ccncc1)n1nc(C(F)(F)F)nc1C2` (stereo not shown) [Structure 244], the AC50 result is “inactive”.

Regarding `COc1ccc(C2Nc3ccccc3C(=O)N2Cc2ccco2)cc1COc1ccc([N+](=O)[O-])cc1` (stereo not shown) [Structure 245], the AC50 result is “inactive”.

In the case of `COc1ccc(CN2C(=O)N(c3ccccc3)C(=O)C2c2ccccc2)cc1COc1ccc(NC(C)=O)cc1` (stereo not shown) [Structure 247], the AC50 result is “inactive”.

On to `COc1ccc(CN(Cc2ccccc2)C(=O)c2ccno2)cc1COc1ccc(NC(C)=O)cc1` [Structure 248], for which the Emax is 32%. In addition, under “read-out: AC50”, the AC50 is 70.8 µM.

`COc1ccc(CN(Cc2ccccc2)C(=O)c2ccno2)cc1COc1ccc(NC(C)=O)cc1` [Structure 249]: the “Maximum Activity compared to TSH” value was 38.00. Moreover, for the setting “read-out: AC50”, the AC50 worked out at 50.1 µM.

With `COc1ccc(C2Nc3ccccc3C(=O)N2Cc2ccccc2)cc1COc1ccc(C#N)cc1` (stereo not shown) [Structure 250], the AC50 result is “inactive”.

Regarding `O=C1c2ccccc2NC(c2cc(Br)c3c(c2)OCO3)N1Cc1ccco1` (stereo not shown) [Structure 251], the AC50 entry was “inactive”.

Turning to `COc1cc(C2Nc3ccccc3C(=O)N2Cc2ccccc2)ccc1OCc1ccc(NC(C)=O)cc1` (stereo not shown) [Structure 252], the AC50 result was “inactive”.

For the compound `O=C1c2ccccc2NC(c2ccccc2)N1Cc1ccco1` (stereo not shown) [Structure 254], the AC50 result was “inactive”.

For the compound `O=C1c2ccccc2NC(c2ccccc2)N1Cc1ccco1` (stereo not shown) [Structure 255], the AC50 entry is “inactive”.

As to `COc1ccc(OCc2cc(C3Nc4ccccc4C(=O)N3Cc3ccccc3)ccc2OC)cc1` (stereo not shown) [Structure 256], the “Maximum Activity compared to TSH” value turned out to be 24.00. Also, under “read-out: AC50”, the AC50 is 5.01 µM.

Consider `COc1ccc(C2Nc3ccccc3C(=O)N2CC(C)(C)C)cc1COc1ccc(NC(C)=O)cc1` (stereo not shown) [Structure 257], for which the Emax turned out to be 20%. Also, the AC50 (read-out: AC50) stood at 20 µM.

With `COc1ccc(C2Nc3ccccc3C(=O)N2C2CCCC2)cc1COc1ccc(NC(C)=O)cc1` (stereo not shown) [Structure 258], the “Maximum Activity compared to TSH” value stood at 21.50. In addition, the AC50 (read-out: AC50) is 28.2 µM.

`COc1ccc(C2Nc3ccccc3C(=O)N2Cc2ccccc2)cc1COc1cccc(Cl)c1` (stereo not shown) [Structure 259]: the AC50 result was “inactive”.

As for `COc1ccc(O)c(C2Nc3ccccc3C(=O)N2Cc2ccccc2)c1` (stereo not shown) [Structure 260], the AC50 entry is “inactive”.

For `COc1ccc(-c2nc3ccc(NC(=O)COC(C)=O)cc3c(=O)n2Cc2ccccc2)cc1COc1ccc(NC(C)=O)cc1` [Structure 261], the AC50 result is “inactive”.

Turning to `COc1ccc(C2Nc3ccccc3C(=O)N2Cc2ccccc2)cc1COc1ccc(NC(=O)c2ccccc2)cc1` (stereo not shown) [Structure 263], the AC50 result is “inactive”.

Turning to `COc1ccc(C2Nc3ccccc3C(=O)N2Cc2ccccc2)cc1COc1ccc(NC(=O)c2ccccc2)cc1` (stereo not shown) [Structure 264], the AC50 result is “inactive”.

For the compound `COc1ccc(C2Nc3ccccc3C(=O)N2Cc2ccccc2C(F)(F)F)cc1COc1ccc(NC(C)=O)cc1` (stereo not shown) [Structure 265], the “Maximum Activity compared to TSH” value is 24.00. The AC50 (read-out: AC50) was found to be 6.31 µM.

Turning to `COc1ccc(C2Nc3ccccc3C(=O)N2Cc2ccco2)cc1COc1ccccc1` (stereo not shown) [Structure 266], the AC50 result is “inactive”.

On to `COc1ccc(C2N(Cc3ccccc3)C(=O)c3ccccc3N2C)cc1COc1ccc(NC(C)=O)cc1` (stereo not shown) [Structure 267], for which the “Maximum Activity compared to TSH” value is listed as 24.50. Further, the AC50 (read-out: AC50) was found to be 7.94 µM.

Turning to `CC(C)c1ccc(C2C3=C(CC(c4ccco4)CC3=O)Nc3nc(C(F)(F)F)nn32)cc1` (stereo not shown) [Structure 268], the AC50 entry was “inactive”.

Consider `COc1ccc(C2Nc3ccccc3C(=O)N2Cc2ccccn2)cc1COc1ccc(NC(C)=O)cc1` (stereo not shown) [Structure 269], for which the “Maximum Activity compared to TSH” value was found to be 28.00. The AC50 (read-out: AC50) came out at 25.1 µM.

Turning to `COc1ccc(C2Nc3ccccc3C(=O)N2Cc2ccccc2)cc1COc1ccc(C(N)=O)cc1` (stereo not shown) [Structure 270], the AC50 entry was “inactive”.

Turning to `COc1ccc(CN(Cc2ccccc2)C(=O)c2ccccc2O)cc1` [Structure 271], the AC50 entry is “inactive”.

Take `COc1ccc(C2Nc3ccccc3C(=O)N2Cc2ccccc2)cc1COc1ccc(F)cc1` (stereo not shown) [Structure 272]: the AC50 result is “inactive”.

As to `COc1ccc(C2Nc3ccccc3C(=O)N2Cc2ccccc2Cl)cc1COc1ccc(NC(C)=O)cc1` (stereo not shown) [Structure 273], the “Maximum Activity compared to TSH” value was 11.00. Also, under “read-out: AC50”, the AC50 worked out at 2.51 µM.

As for `COc1ccc(C2Nc3cccc(OC)c3C(=O)N2Cc2ccccc2)cc1COc1ccc(NC(C)=O)cc1` (stereo not shown) [Structure 274], the “Maximum Activity compared to TSH” value was determined as 28.00. The AC50 (read-out: AC50) came to 20 µM.

With `CCC(=O)Nc1ccc(OCc2cc(C3Nc4ccccc4C(=O)N3Cc3ccccc3)ccc2OC)cc1` (stereo not shown) [Structure 275], the “Maximum Activity compared to TSH” value is given as 23.50. Further, the AC50 (read-out: AC50) was found to be 7.94 µM.

Regarding `COc1ccc(C2Nc3ccccc3C(=O)N2CC(C)(C)C)cc1COc1ccc(NC(C)=O)cc1` (stereo not shown) [Structure 276], the “Maximum Activity compared to TSH” value was 32.00. Also, for the setting “read-out: AC50”, the AC50 stood at 25.1 µM.

For `O=C(c1ccccc1O)N(Cc1cccs1)Cc1cccs1` [Structure 277], the AC50 result was “inactive”.

In the case of `COc1ccc(C2Nc3ccccc3C(=O)N2Cc2ccccc2)cc1COc1cccc(Cl)c1` (stereo not shown) [Structure 278], the AC50 entry is “inactive”.

`COc1ccc(C2Nc3ccccc3C(=O)N2Cc2ccccc2OC)cc1COc1ccc(NC(C)=O)cc1` (stereo not shown) [Structure 279]: the “Maximum Activity compared to TSH” value was found to be 20.50. For the same compound, the AC50 (read-out: AC50) worked out at 4.47 µM.

In the case of `COc1ccc(C2Nc3ccccc3C(=O)N2Cc2ccccc2C)cc1COc1ccc(NC(C)=O)cc1` (stereo not shown) [Structure 280], the Emax was 24%. The AC50 (read-out: AC50) was 17.8 µM.

Consider `COc1ccc(C2Nc3ccccc3C(=O)N2Cc2ccccc2C)cc1COc1ccc(NC(C)=O)cc1` (stereo not shown) [Structure 281], for which the “Maximum Activity compared to TSH” value is 22.00. Besides, the AC50 (read-out: AC50) was found to be 5.62 µM.

As to `COc1ccc(C2Nc3ccccc3C(=O)N2Cc2ccco2)cc1COc1ccc(N)cc1` (stereo not shown) [Structure 282], the AC50 result is “inactive”.

`COc1ccc(C2Nc3ccccc3C(=O)N2Cc2ccco2)cc1COc1c(C)cccc1C` (stereo not shown) [Structure 284]: the AC50 entry is “inactive”.

Turning to `COc1ccc(CNCc2ccccc2)cc1COc1ccc(NC(C)=O)cc1` [Structure 285], the AC50 entry is “inactive”.

For the compound `O=C(c1ccccc1O)N(Cc1ccccc1)Cc1cccs1` [Structure 287], the “Maximum Activity compared to TSH” value is recorded as 30.00. The AC50 (read-out: AC50) was determined as 22.4 µM.

On to `COc1ccc(C2Nc3ccccc3C(=O)N2Cc2cccc3ccccc23)cc1COc1ccc(NC(C)=O)cc1` (stereo not shown) [Structure 288], for which the “Maximum Activity compared to TSH” value is given as 20.50. Further, the AC50 (read-out: AC50) worked out at 2.24 µM.

Regarding `COc1ccc(C2Nc3ccccc3C(=O)N2Cc2ccco2)cc1COc1ccc([N+](=O)[O-])cc1` (stereo not shown) [Structure 289], the AC50 entry was “inactive”.

As for `COc1ccc(C2Nc3ccccc3C(=O)N2Cc2ccco2)cc1COc1ccc([N+](=O)[O-])cc1` (stereo not shown) [Structure 290], the AC50 result is “inactive”.

As for `COc1ccc(CN(Cc2ccccc2)C(=O)c2ccccc2O)cc1` [Structure 291], the “Maximum Activity compared to TSH” value was determined as 38.00. Besides, the AC50 (read-out: AC50) amounted to 35.5 µM.

Turning to `COc1ccc(-c2nc3ccc(NC(=O)CO)cc3c(=O)n2Cc2cccc(Cl)c2)cc1COc1ccc(NC(C)=O)cc1` [Structure 292], the AC50 result was “inactive”.

Turning to `COc1ccc(CN2C(=O)N(c3ccccc3)C(=O)C2c2ccccc2)cc1COc1ccc(NC(C)=O)cc1` (stereo not shown) [Structure 293], the AC50 result was “inactive”.
